Five molecules from patent US8304408B2, “Wnt signaling inhibitors, and methods for making and using them” (The Regents of the University of California, priority 2007, dated 2012) can be followed below.

Broadly, the logP is a log measure of how a compound divides between an organic and an aqueous phase. A low value points to lower lipophilicity. The term solubility denotes the dissolved amount per volume that the medium holds. The low end stands for a poorly soluble substance, the high end for a readily soluble substance. Broadly, the IC50 is the midpoint of a concentration-inhibition curve.

Data set [1] relates to TCF/LEF dependent reporter gene (wnt/beta-catenin signaling) in HEK293 cells. Kind of data set: Top-flash assay: HEK293 cells transfected with a TCF/LEF dependent reporter gene. Type of data set: cell-based. The note with it: for inhibition of wnt-signaling path in HEK293 reporter assay: even at concentrations of 50 uM. The method, then: FIG. 2 in graphic form illustrates data comparing inhibition of beta-catenin in a “Top-flash assay.” In this assay HEK 293 cells were transfected with a TCF/LEF dependent reporter gene and expression plasmid for Dsh. After overnight incubation, the cells were treated with the indicated amounts of debromohymenialdesine (“MC-001”, or dBHD, or dbHD), which is compound I in FIG. 1, analog II and III, or vehicle alone, after which the reporter gene activity was measured. All cells were also transfected with a reporter gene control for testing the transfection efficiency. In FIG. 2, the first pair of bars (to the left, closest to the y, or “fold induction”, axis) is DMSO, then moving right, the second pair of bars is 5 μM debromohymenialdesine, or dbHD (compound I of FIG. 1), then 10 μM dbHD, then 20 μM dbHD, then 50 μM compound II of FIG. 1, then 50 μM compound III of FIG. 1.
A dose response curve for debromohymenialdesine, or “MC-001”, or dbHD (or dBHD), (compound I of FIG. 1) from the HEK293 cell line assay is shown in FIG. 3. The curve is well behaved showing a relatively steep sigmoidal inhibition-concentration profile with an IC50 value of 2 uM.
A general note: Reporter assays use an easily measured gene product as a stand-in for the process of interest.

Data set [2] is described as follows: log P (partition coefficient). The format is physicochemical.
A short description of another data set: Solubility in water. The format is physicochemical.
The subject of the next data set is normal HSC. Kind of data set: Replating of normal HSC. Conditions: at doses that inhibited CML HSC and GMP. Type of data set: cell-based. The method, then: (§1) On day 10, individual colonies were plucked and replicated in new methylcellulose and the replating efficiency was determined.
The test system of data set [3] is GMP from advanced phase CML. Kind of data set: Replating efficiency of CML GMP. Type of data set: cell-based. Conditions: replating efficiency after day 10 colony replating in methylcellulose. As to the method:
as §1

A further data set is described as follows: Storage stability. The format is physicochemical. Conditions: at RT.
In the next data set the test system is BALB/C mice. The experiment in a line: Toxicity tests in mice. Type of data set: in vivo. Conditions: for toxic / adverse effects in mice: doses up to 100 mg/kg.
Data set [4] has as its system chronic myelogenous leukemia stem cell (CML HSC). The experiment in a line: Replating efficiency (self-renewal) of CML hematopoietic stem cells. The format is cell-based. The note with it: for self-renewal / replating efficiency of leukemia stem cells: 2 uM drug concentration; for inhibition of CML HSC replating: replating efficiency after day 10 colony replating in methylcellulose. As to the method:
as §1

In brackets after ≈: the same amount, converted by molar mass.

With `NC1=NC(=O)/C(=C2\CCNC(=O)c3[nH]c(Br)cc32)N1` [Hymenialdesine, hymenialdesine, reference compound], in data set [1], the “inhibition of wnt-signaling path in HEK293 reporter assay” value is on record as “did not inhibit”.
On the same count and under the same terms, for `NC1=N[C@]23CCCN2C(=O)c2cc(Br)c(Br)n2[C@@H]3N1` [dibromophakelin, reference compound] the value was “did not inhibit”.
With `c1ccc2nc3ccccc3c-2nc1` [indoloazepine, reference compound], the “inhibition of wnt-signaling path in HEK293 reporter assay” value in data set [1] is listed as “did not inhibit”.
As to `NC1=NC(=O)/C(=C2\CCNC(=O)c3[nH]ccc32)N1` [debromohymenialdesine, (4Z)-4-(2-amino-5-oxo-3,5-dihydro-4H-imidazol-4-ylidene)-4,5,6,7-tetrahy-dropyrrolo(2,3-c)azepin-8(1H)-one], the logP in data set [2] was -0.58. Also, in “Solubility in water”, the solubility was found to be 22 µg/mL (≈ 89.7 µM). Further, the “inhibition of wnt-signaling in HEK293 cells transfected with a TCF/LEF dependent reporter gene” value in data set [1] is reported as “inhibited”. The IC50 in data set [1] (Homo sapiens, HEK293 cells, TCF/LEF dependent reporter gene, read-out: IC50 from dose response curve, HEK293 cell line assay) came to 2000 nM. For the same molecule, the “activity of synthetically obtained compound versus natural product” value in data set [1] (compound made by total synthesis, cell based reporter system) is given as “comparable to the natural product”. The “effect on normal HSC replating” value with normal HSC is recorded as “spared”. Moreover, the “inhibition of CML GMP replating” value in data set [3] was “inhibited”. The Storage stability entry in the data set “Storage stability” is “several months”. For the same molecule, the “toxic / adverse effects in mice” value is recorded as “no adverse affects” with BALB/C mice (listed as MC-001) and “no toxic effects” in the data set on BALB/C mice (listed as dBHD). Also, the tolerability in mice result in the data set with BALB/C mice (mouse, in vivo) is “well tolerated”. Besides, the “self-renewal / replating efficiency of leukemia stem cells” value in data set [4] was “completely abrogated”; in data set [4] (listed as MC-001) it was “completely abrogates”. The “inhibition of CML HSC replating” value in data set [4] is reported as “inhibited”.

B1: Recombinant Dkk1: recombinant Dkk1, a Wnt inhibitor used as comparator (protein, UniProt O94907 32-266, looked up)
Dickkopf-related protein 1: TLNSVLNSNAIKNLPPPLGGAAGHPGSAVSAAPGILYPGGNKYQTIDNYQPYPCAEDEECGTDEYCASPTRGGDAGVQICLACRKRRKRCMRHAMCCPGNYCKNGICVSSDQNHFRGEIEETITESFGNDHSTLDGYSRRTTLSSKMYHTKGQEGSVCLRSSDCASGLCCARHFWSKICKPVLKEGQVCTKHRRKGSHGLEIFQRCYCGEGLSCRIQKDHHQASNSSRLHTCQRH
Take B1: in data set [4], the “inhibition of CML HSC replating” value is reported as “did not inhibit”.
